Measured values: PubChem BioAssay AID1845194 (Molecular Pharmacology Branch, DTP, NCI, 2023)

Test system: 287954-098-R-J1 tumor spheroid viability
Assay: Anticancer human tumor 287954-098-R-J1 patient-derived Ewing sarcoma cell line growth inhibition
Settings: spheroids with HUVEC and MSC; for IC50: curve of first compound; for viability, T/C: stronger effect = lower value
Method in brief: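 Single agents and combinations were tested on spheroids built from tumor cells plus HUVEC and hMSC, at half-log dilutions starting at or near clinical Cmax, else 10 microM; final DMSO 0.25% (v/v).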

[1] = second compound 1 µM, first compound 0.00949 µM
[2] = second compound 1 µM, first compound 0.03 µM
[3] = second compound 1 µM, first compound 0.0949 µM
[4] = second compound 1 µM, first compound 0.3 µM
[5] = second compound 1 µM, first compound 0.949 µM
[6] = second compound 1 µM, first compound 3 µM
[7] = second compound 3.16 µM, first compound 0.00949 µM
[8] = second compound 3.16 µM, first compound 0.03 µM
[9] = second compound 3.16 µM, first compound 0.0949 µM
[10] = second compound 3.16 µM, first compound 0.3 µM
[11] = second compound 3.16 µM, first compound 0.949 µM
[12] = second compound 3.16 µM, first compound 3 µM
[13] = second compound 10 µM, first compound 0.00949 µM
[14] = second compound 10 µM, first compound 0.03 µM
[15] = second compound 10 µM, first compound 0.0949 µM
[16] = second compound 10 µM, first compound 0.3 µM
[17] = second compound 10 µM, first compound 0.949 µM
[18] = second compound 10 µM, first compound 3 µM
[19] = second compound 31.6 µM, first compound 0.00949 µM
[20] = second compound 31.6 µM, first compound 0.03 µM
[21] = second compound 31.6 µM, first compound 0.0949 µM
[22] = second compound 31.6 µM, first compound 0.3 µM
[23] = second compound 31.6 µM, first compound 0.949 µM
[24] = second compound 31.6 µM, first compound 3 µM
[25] = second compound 100 µM, first compound 0.00949 µM
[26] = second compound 100 µM, first compound 0.03 µM
[27] = second compound 100 µM, first compound 0.0949 µM
[28] = second compound 100 µM, first compound 0.3 µM
[29] = second compound 100 µM, first compound 0.949 µM
[30] = second compound 100 µM, first compound 3 µM
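Note: spheroids exposed to compound for 7 days before viability readout.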
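Throughout, for viability, T/C: luminescent signal taken as surrogate of viable cell content; 100% = DMSO vehicle control viability and lower means growth inhibition.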

Row | SMILES | IC50 (second compound 1 µM) | IC50 (second compound 3.16 µM) | IC50 (second compound 10 µM) | IC50 (second compound 31.6 µM) | IC50 (second compound 100 µM) | viability, T/C [1] | viability, T/C [2] | viability, T/C [3] | viability, T/C [4] | viability, T/C [5] | viability, T/C [6] | viability, T/C [7] | viability, T/C [8] | viability, T/C [9] | viability, T/C [10] | viability, T/C [11] | viability, T/C [12] | viability, T/C [13] | viability, T/C [14] | viability, T/C [15] | also measured
1 | CNCc1ccc(-c2cc(-c3nc(-c4ccc(S(=O)(=O)C(C)C)cc4)cnc3N)on2)cc1 + Cn1nnc2c(C(N)=O)ncn2c1=O | 0.545 µM | 0.555 µM | 0.551 µM | 0.398 µM | 0.17 µM | 98.6% | 103% | 110% | 103% | 0.19% | 0.11% | 105% | 106% | 113% | 107% | 0.19% | 0.1% | 102% | 110% | 106% | viability, T/C [16]: 105%; viability, T/C [17]: 0.16%; viability, T/C [18]: 0.09%; viability, T/C [19]: 104%; viability, T/C [20]: 106%; viability, T/C [21]: 121%; viability, T/C [22]: 66.3%; viability, T/C [23]: 0.13%; viability, T/C [24]: 0.1%; viability, T/C [25]: 97.5%; viability, T/C [26]: 100%; viability, T/C [27]: 103%; viability, T/C [28]: 1.71%; viability, T/C [29]: 0.14%; viability, T/C [30]: 0.16%
2 | Cc1sc2c(c1C)C(c1ccc(Cl)cc1)=NC(CC(=O)Nc1ccc(O)cc1)c1nnc(C)n1-2 (stereo not given) + Cn1nnc2c(C(N)=O)ncn2c1=O | 0.954 µM | 0.624 µM | 1.11 µM | 0.624 µM | 0.181 µM | 112% | 117% | 111% | 101% | 50.2% | 4.34% | 110% | 113% | 123% | 91.9% | 25.9% | 2.69% | 113% | 122% | 122% | viability, T/C [16]: 100%; viability, T/C [17]: 58.3%; viability, T/C [18]: 2.44%; viability, T/C [19]: 114%; viability, T/C [20]: 130%; viability, T/C [21]: 121%; viability, T/C [22]: 113%; viability, T/C [23]: 13.7%; viability, T/C [24]: 1.92%; viability, T/C [25]: 105%; viability, T/C [26]: 115%; viability, T/C [27]: 98.2%; viability, T/C [28]: 12.2%; viability, T/C [29]: 2.46%; viability, T/C [30]: 2.14%
3 | Cn1ncnc1[C@H]1c2n[nH]c(=O)c3cc(F)cc(c23)N[C@@H]1c1ccc(F)cc1 + Cn1nnc2c(C(N)=O)ncn2c1=O | 0.544 µM | 0.543 µM | 0.506 µM | 0.057 µM | < 0.00949 µM | 111% | 106% | 104% | 94.7% | 8.18% | 2.42% | 112% | 106% | 106% | 99.2% | 3.64% | 2.29% | 102% | 106% | 104% | viability, T/C [16]: 89.2%; viability, T/C [17]: 2.82%; viability, T/C [18]: 2.58%; viability, T/C [19]: 104%; viability, T/C [20]: 90.6%; viability, T/C [21]: 17.9%; viability, T/C [22]: 2.5%; viability, T/C [23]: 2.34%; viability, T/C [24]: 2.04%; viability, T/C [25]: 3.4%; viability, T/C [26]: 2.77%; viability, T/C [27]: 2.49%; viability, T/C [28]: 2.57%; viability, T/C [29]: 2.68%; viability, T/C [30]: 2.3%
